Several values for one entry are separate records, joined by “and”; a condition that tells them apart may be missing. Equal entries are not always repeated. Residues, ends and D or L forms follow the SMILES beside them. *: point of attachment. Cbz = O=C(OCc1ccccc1)*
Legend:
VCP = test system: VCP; parameters: method as in PMID 23892893; settings: read-out: Experimental IC50; cited from earlier work
[1] = test system: UbG76V-GFP (p97-dependent substrate); experiment: UbG76V-GFP degradation assay (dual-reporter HeLa cell line); type: cell-based; settings: HeLa dual-reporter cells, 160 min
Description: (§1) First, the activities of these compounds against VCP/p97 in a cell-based degradation assay[31] were evaluated. For this purpose, we used a dual-reporter system to monitor the ubiquitin-proteasome system (UPS) and VCP/p97 function in mammalian cells. This system comprises an ubiquitin fusion degradation (UFD) reporter Ub^G76V-GFP and the oxygen-dependent degradation domain of HIF1α fused to luciferase (ODD-Luc), a non-ERAD substrate for proteasomal degradation. Measurement of GFP and luciferase activity in response to a treatment allows to assess the effect on p97-dependent and p97-independent proteolysis.
(§2) A dual-reporter stable HeLa cell line was generated to monitor UPS function in mammalian cells. A ubiquitin fusion degradation (UFD) reporter Ub^G76V-GFP and an oxygen-dependent degradation domain of HIF1α fused to luciferase (ODD-Luc). […] Cells were seeded on 384-well plates (3000 cells/well) and grown for 18 h. Cells were treated with modified DMEM (without phenol red, folic acid, riboflavin, and vitamin B12) containing MG132 (4 μM) for 1 h and washed twice with pre-warmed PBS. […] Plates were imaged on the ImageXpress Micro microscope (Molecular Devices) after 160 min. Luciferase activity were measured by adding D-Luciferin (10 μl of 2.5 mg/mL in PBS) into each well containing 38 μl of medium and incubated at room temperature for 10 min. Use Synergy Neo (BioTek) to read Luciferase signal.

[2] = parameters: method as in PMID 23245311; settings: oral administration in mice; cited from earlier work
[3] = test system: ODD-Luc (p97-independent proteasome substrate); experiment: ODD-Luc degradation assay (dual-reporter HeLa cell line); type: cell-based; settings: HeLa dual-reporter cells
Description: as §1, §2

NSCLC cells = test system: NSCLC cells; parameters: method as in PMID 27333030; settings: sub-micromolar concentrations; cited from earlier work
E578Q VCP/p97 ATPase = E578Q VCP/p97 ATPase (Homo sapiens, UniProt P55072, E578Q); experiment: In vitro ATPase assay, E578Q (D2 Walker B mutant, D1-active); type: biochemical; settings: for IC50: 200 μM ATP, 8-dose titration
Description: (§3) In order to test direct inhibition of VCP/p97 ATPase activity by these compounds, we performed in vitro ATPase assays of the five UPS and VCP/p97 perturbing compounds to evaluate their inhibitory activity against VCP/p97.

tumor growth = settings: 50 mg/kg, mice; cited from earlier work
WT VCP/p97 ATPase = WT VCP/p97 ATPase (Homo sapiens, UniProt P55072); experiment: In vitro ATPase assay, WT VCP/p97; type: biochemical; settings: 200 μM ATP, 8-dose titration
Description: as §3

E305Q VCP/p97 ATPase = E305Q VCP/p97 ATPase (Homo sapiens, UniProt P55072, E305Q); experiment: In vitro ATPase assay, E305Q (D1 Walker B mutant, D2-active); type: biochemical; settings: for IC50: 200 μM ATP, 8-dose titration
Description: as §3

[4] = cited from earlier work

E578Q VCP/p97 ATPase, sequence (P55072 whole entry E578Q): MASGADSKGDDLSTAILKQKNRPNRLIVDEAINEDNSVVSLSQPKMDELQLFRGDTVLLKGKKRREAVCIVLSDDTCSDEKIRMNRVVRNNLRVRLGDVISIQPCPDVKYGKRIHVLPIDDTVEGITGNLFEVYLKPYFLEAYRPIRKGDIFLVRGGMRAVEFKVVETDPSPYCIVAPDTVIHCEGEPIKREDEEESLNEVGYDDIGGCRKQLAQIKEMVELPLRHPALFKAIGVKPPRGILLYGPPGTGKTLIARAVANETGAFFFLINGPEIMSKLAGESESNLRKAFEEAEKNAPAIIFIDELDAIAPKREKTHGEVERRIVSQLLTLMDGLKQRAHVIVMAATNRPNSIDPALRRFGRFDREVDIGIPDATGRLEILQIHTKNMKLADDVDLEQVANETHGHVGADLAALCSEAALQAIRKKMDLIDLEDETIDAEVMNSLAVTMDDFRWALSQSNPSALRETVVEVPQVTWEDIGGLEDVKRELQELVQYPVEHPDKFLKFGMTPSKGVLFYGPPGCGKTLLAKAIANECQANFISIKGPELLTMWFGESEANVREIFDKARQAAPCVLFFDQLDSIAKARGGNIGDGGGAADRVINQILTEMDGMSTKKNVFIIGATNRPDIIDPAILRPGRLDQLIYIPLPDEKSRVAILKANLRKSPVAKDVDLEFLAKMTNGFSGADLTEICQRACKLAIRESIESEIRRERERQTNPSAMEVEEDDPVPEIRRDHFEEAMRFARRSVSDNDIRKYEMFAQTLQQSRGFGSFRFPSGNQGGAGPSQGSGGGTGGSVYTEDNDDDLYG
E305Q VCP/p97 ATPase, sequence (P55072 whole entry E305Q): as the sequence (P55072 whole entry E578Q) above, with E305Q, Q578E counted along it
WT VCP/p97 ATPase, sequence (P55072 whole entry): as the sequence (P55072 whole entry E578Q) above, with Q578E counted along it

In the case of Cc1cc(OCc2nnc(SC3CCCC3)n2-c2cccnc2)ccc1-c1ccc(S(C)(=O)=O)cc1 [NMS-873], the IC50 (VCP) is listed as 0.03 µM, the IC50 [1] is listed as 1.4 µM and the bioavailability [2] is listed as “modest”. For the same compound, the systemic exposure [2] was “modest” and the IC50 ([3]; Homo sapiens) was over 40 µM.
In the case of COc1ccc(CCN2CCC(Nc3nc4ccccc4n3Cc3ccc(F)cc3)CC2)cc1 [Astemizole], the “sensitization of NSCLC cells to chemotherapy” value (NSCLC cells) is given as “sensitized NSCLC cells to chemotherapy”, the IC50 (E578Q VCP/p97 ATPase) is given as over 30 µM and the tumor growth inhibition (tumor growth) is given as “sufficient to inhibit tumor growth”. The IC50 (WT VCP/p97 ATPase) was 25 µM and the IC50 (E305Q VCP/p97 ATPase) was over 30 µM.
For Clc1ccccc1C(c1ccccc1)(c1ccccc1)n1ccnc1 [Clotrimazole], the IC50 (E578Q VCP/p97 ATPase) is listed as 8 µM and 8.2 µM, the water solubility [4] is listed as “poor” and the IC50 (WT VCP/p97 ATPase) is listed as 12 µM. For the same compound, the IC50 (E305Q VCP/p97 ATPase) was 8 µM.
In the case of Ivermectin, the IC50 (E578Q VCP/p97 ATPase) is reported as over 30 µM, the IC50 [1] is reported as 9.7 µM and the IC50 (WT VCP/p97 ATPase) is reported as over 30 µM. For the same compound, the “IC50 WT VCP/p97 ATPase activity” value (WT VCP/p97 ATPase) was “did not show activity”, the IC50 (E305Q VCP/p97 ATPase) was over 30 µM and the IC50 [3] was over 40 µM.
For NMS-862, the IC50 (VCP) is given as 2.66 µM.
Work on O=C(Nc1ccc([N+](=O)[O-])cc1Cl)c1cc(Cl)ccc1O [Niclosamide] yielded an IC50 ([1]; Homo sapiens) of over 40 µM and an IC50 ([3]; Homo sapiens) of over 40 µM.
In the case of c1ccc(CNc2nc(NCc3ccccc3)c3ccccc3n2)cc1 [DBeQ], the IC50 (E578Q VCP/p97 ATPase) is reported as 11 µM, the “IC50 increase against the D2 mutant relative to wild-type VCP/p97” value (E578Q VCP/p97 ATPase; E578Q vs WT) is reported as 3.7 fold and the IC50 (WT VCP/p97 ATPase) is reported as 3 µM. For the same compound, the IC50 (E305Q VCP/p97 ATPase) was 5.5 µM and the “IC50 increase against the D1 mutant relative to wild-type VCP/p97” value (E305Q VCP/p97 ATPase; E305Q vs WT) was 1.8 fold.
Work on CC(C)(C)NC(=O)[C@@H]1C[C@@H]2CCCC[C@@H]2CN1C[C@@H](O)[C@H](Cc1ccccc1)NC(=O)[C@H](CC(N)=O)NC(=O)c1ccc2ccccc2n1 [Saquinavir] yielded an IC50 (E578Q VCP/p97 ATPase) of over 30 µM, an IC50 ([1]; Homo sapiens) of 10.7 µM and an IC50 (WT VCP/p97 ATPase) of over 30 µM. For the same compound, the IC50 (E305Q VCP/p97 ATPase) was over 30 µM and the IC50 ([3]; Homo sapiens) was 20.8 µM.
In the case of NMS-249, the IC50 (VCP) is listed as 0.29 µM.
Compound CC(C)C[C@@H](C=O)NC(=O)[C@H](CC(C)C)NC(=O)[C@H](CC(C)C)NC(=O)OCc1ccccc1 [MG132] (Cbz-Leu-Leu-Leu-aldehyde) has an IC50 ([1]; Homo sapiens) of 1.2 µM and an IC50 ([3]; Homo sapiens) of 4.4 µM.
Work on CC#CCC(C)[C@H](O)/C=C/[C@@H]1[C@H]2C/C(=C/CCCC(=O)O)C[C@H]2C[C@H]1O (stereo partly drawn) [Iloprost] yielded an IC50 ([1]; Homo sapiens) of over 40 µM and an IC50 ([3]; Homo sapiens) of over 40 µM.
In the case of CC(C)(C)c1ccc(C(=O)CCCN2CCC(OC(c3ccccc3)c3ccccc3)CC2)cc1 [Ebastine], the “sensitization of NSCLC cells to chemotherapy” value (NSCLC cells) is listed as “sensitized NSCLC cells to chemotherapy”.

Reference: article PMC5359624, “A structure- and chemical genomics-based approach for repositioning of drugs against VCP/p97 ATPase” (Scientific Reports, 2017)
